Measured values taken from US9096853B2, “Modified siRNA molecules incorporating 5-fluoro-2′-deoxyuridine residues to enhance cytotoxicity” (U.S. Department of Veterans Affairs, priority 2012, dated 2015).
d = 2'-deoxy (DNA); r = 2'-OH (RNA)

Key:
[1] = tested on: human colon cancer RKO cell line; assay: Cell proliferation assay (WST-1) in RKO cells; type: cell-based; details: 6 hr exposure then 96 hr growth, mean ± S.D., at least 3 experiments
Method: RKO cells were plated in 96-well plates at a density of 800 cells/well. On the following day, cells were incubated with ssiRNA/LF2000 complexes for 6 hr, after which time, the growth medium was replaced, and cells were grown for an additional 96 hr. Similarly, RKO cells were treated with FdU (#F0503, Sigma) for 6 hr followed by medium replacement and then allowed to grow for an additional 96 hr. Cell proliferation/viability was quantified by the WST-1 assay (Roche; Indianapolis, Ind.).

GC3/TK− cells = assay: Cell proliferation (WST-1) in thymidine kinase-deficient GC3/TK− cells; type: cell-based, human; details: 6 hr transfection, additional 5 days
Method: FIGS. 2A-B illustrate the effect of TK knockdown on the cytotoxicity of the FdU-modified ssiRNA. (A) RKO cells were transfected with 1 nM TK siRNA (lanes 3 and 4) or Mis-dU/dA (lane 5). After 6 hr, the medium was replaced with fresh medium. On the following day, cells were transfected with TS6-FdU/dA ssiRNA (1 nM) for 6 hr (lanes 2, 4, and 5) after which time, cells were harvested for immunoblot analysis. RKO cells were treated with 5-fluorouracil (5 nM) for 6 hr before harvesting (lane 6). (B) GC3/TK− cells were transfected with various concentrations of TS6-dU/dA or TS6-FdU/dA ssiRNA. After 6 hr, the medium was replaced and after an additional 5 days, cell proliferation was determined with the WST-1 assay;
The human colon cancer RKO cell line, originally obtained from ATCC, has been previously well-characterized and was maintained in RPMI-1640 (Invitrogen; Carlsbad, Calif.) with 10% (v/v) dialyzed fetal bovine serum at 37° C. in a humidified incubator with 5% CO2 (Reference 11). The thymidine kinase-deficient GC3/TK− cells were a gift from Dr. Janet Houghton (Reference 18). Cells were routinely authenticated by morphology and growth curve analysis. […]
RKO cells were plated in 96-well plates at a density of 800 cells/well. […] Cell proliferation/viability was quantified by the WST-1 assay (Roche; Indianapolis, Ind.).

[2] = tested on: thymidylate synthase (TS) protein; assay: Immunoblot analysis of TS protein (free and ITC-bound), Odyssey quantitation; type: cell-based, human; details: RKO cells, 48 hr
Method: FIGS. 1A-B illustrate the effect of FdU incorporation in ssiRNA on TS protein expression. RKO cells were transfected with TS6 ssiRNAs (1 nM) containing various 3′-overhangs. After 6 hr, the medium was replaced. After an additional 48 hr, cells were harvested and processed for immunoblot and qPCR analysis as described in the Materials and Methods section. (A) Representative blot from 4 experiments. (B) All qPCR values represent the mean±S.D. from at least 3 separate experiments performed in triplicate. The normalized amount of TS mRNA from mock-transfected cells (LF2000) was set to 1.0 and all other values compared against that value. ITC, inhibitory ternary complex;
Cells were plated at a density of 1.5×10^5 cells/well. On the following day, ssiRNAs were complexed with Lipofectamine 2000 (LF2000, Invitrogen) in serum-free RPMI-1640 medium and added to the plated cells. After 48 hr, cells were rinsed with PBS and scraped in cell lysis buffer (10 mM Tris pH7.4, 150 mM NaCl, 1 mM EDTA, 1% IGEPAL, 0.5% sodium deoxycholate, and 0.1% SDS) containing freshly added Protease Inhibitor Cocktail (Sigma; St. Louis, Mo.), 1 mM phenylmethylsulfonyl fluoride, and phosphatase inhibitors (Sigma). Lysates were sonicated and then centrifuged at 14,000 rpm for 30 min at 4° C. to remove debris. Cell lysates were stored at −80° C. for future use. For mRNA analysis, total RNA was extracted using Trizol (Invitrogen) and stored at −80° C. for future use.
Protein concentrations of cell lysates were determined using the DC Protein Assay (Bio-Rad; Hercules, Calif.). Equal amounts of protein (30 μg) from each cell lysate were resolved on SDS-PAGE using the method of Laemmli (Reference 19) and transferred onto 0.45 μm nitrocellulose membranes (Bio-Rad). Membranes were blocked and incubated overnight with primary antibodies at 4° C. The following antibodies were used in the experiments: anti-TS (Clone 4H4B1; Invitrogen), anti-TS (#5449; Cell Signaling; San Francisco, Calif.), anti-p21 Waf1/Cip1 (#2947; Cell Signaling), anti-p53 (#sc-126; Santa Cruz Biotechnology; Santa Cruz, Calif.), anti-PARP (#9542; Cell Signaling), anti-Fas (#4233; Cell Signaling), anti-phospho-histone H2A.X (Ser139) (#2577; Cell Signaling), anti-histone H2A.X (#7631; Cell Signaling), anti-phospho-ATM (pS1981; EPITOMICS Inc.; Burlingame, Calif.), anti-ATM (#A1106; Sigma), and anti-α-tubulin (EMD Biosciences; San Diego, Calif.). After multiple TBST washes (1×TBS, 0.1% Tween-20), membranes were incubated with corresponding horseradish peroxidase-conjugated secondary antibodies (Bio-Rad) for 1 hr at room temperature. Proteins were detected by the enhanced chemiluminescence method (SuperSignal West Pico substrate; Pierce; Rockford, Ill.). Quantitation of signal intensities was performed by densitometry on a Xerox scanner using NIH IMAGEJ software.
Immunoblots were prepared as described above. After incubation with anti-TS polyclonal antibody, membranes were blocked with the Odyssey blocking buffer and incubated with IRDye 800CW goat anti-rabbit antibody (LI-COR Biosciences; Lincoln, Nebr., USA) according to the manufacturer instructions. The fluorescent signal was detected and quantified using the Odyssey infrared imaging system (LI-COR).

[3] = tested on: thymidylate synthase (TS) protein; assay: as above; type: cell-based, human; details: RKO cells, ssiRNA 10 nM, pre vs. 0 hr

TS6-dU/dA: unmodified TS-targeted ssiRNA, 5 dU on 3′-end of sense strand, 5 dA on 3′-end of antisense strand; SEQ ID NO: 3 and 4 (sense GGAUAUUGUCAGUCUUUAGGUUUUU; antisense CCUAAAGACUGACAAUAUCCAAAAA; sense: sugars from the 5' end r20 d5, backbone and T or U not given here; antisense: sugars from the 5' end r20 d5, backbone not given here)
IC50 [1]: 81.9 nM | IC50 (GC3/TK− cells): 51.4 ± 27.8 nM | suppression of expression of TS protein ([2]; 1 nM): ~80% | Free TS (%) ([2]; ssiRNA 1 nM, normalized to free TS protein in mock-transfected cells (LF2000) set to 100%, mean ± S.D., 6 experiments): 22.6 ± 7.5% | TS protein levels immediately after transfection [3]: minimally affected
